Test [1] has as its target Mitogen-activated protein kinase 9 (Homo sapiens, UniProt P45984). As to the kind of experiment: Selectivity interaction (Upstate Kinase Profiler service (Millipore)) EUB0000056c MAPK9. The following applies: at 1 µM.
Test [2] concerns the target Calcium/calmodulin-dependent protein kinase type 1G (Homo sapiens) (UniProt Q96NX5). The settings on record: at 10 µM.
The target of test [3] is Mitogen-activated protein kinase kinase kinase kinase 5 (Homo sapiens) (UniProt Q9Y4K4). As to the kind of experiment: Selectivity interaction (KinomeScan (DiscoverX)) EUB0000092b MAP4K5. The following applies: at 10 µM.
Test [4] has as its target T1, cGMP-dependent protein kinase 2 (Homo sapiens) (UniProt Q13237).
T1 sequence (whole entry): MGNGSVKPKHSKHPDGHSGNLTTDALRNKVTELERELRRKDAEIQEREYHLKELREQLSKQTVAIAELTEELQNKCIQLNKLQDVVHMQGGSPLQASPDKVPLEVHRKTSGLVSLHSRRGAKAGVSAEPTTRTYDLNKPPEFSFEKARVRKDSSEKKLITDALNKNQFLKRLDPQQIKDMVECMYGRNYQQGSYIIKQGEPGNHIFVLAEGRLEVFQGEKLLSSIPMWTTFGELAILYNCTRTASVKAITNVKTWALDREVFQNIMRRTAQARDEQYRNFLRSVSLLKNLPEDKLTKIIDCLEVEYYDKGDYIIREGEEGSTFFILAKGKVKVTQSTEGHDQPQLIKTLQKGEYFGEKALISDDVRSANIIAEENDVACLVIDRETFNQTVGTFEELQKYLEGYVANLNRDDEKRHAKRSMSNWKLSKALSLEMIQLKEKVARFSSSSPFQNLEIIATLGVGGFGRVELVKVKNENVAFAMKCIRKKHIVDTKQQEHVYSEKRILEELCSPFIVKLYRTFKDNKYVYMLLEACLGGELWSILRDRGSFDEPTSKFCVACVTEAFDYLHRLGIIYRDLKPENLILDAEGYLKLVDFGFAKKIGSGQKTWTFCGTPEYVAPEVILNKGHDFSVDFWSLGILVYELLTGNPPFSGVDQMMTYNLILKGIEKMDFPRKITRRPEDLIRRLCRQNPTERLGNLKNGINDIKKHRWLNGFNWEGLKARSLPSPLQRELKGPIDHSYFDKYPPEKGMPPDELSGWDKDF
As to the kind of experiment: Selectivity interaction (SelectScreen profiling (Invitrogen)) EUB0000607a PRKG2. The settings on record: at 2 µM.

Test [5] concerns the target T2, Eukaryotic elongation factor 2 kinase (Homo sapiens) (UniProt O00418).
T2 sequence (whole entry): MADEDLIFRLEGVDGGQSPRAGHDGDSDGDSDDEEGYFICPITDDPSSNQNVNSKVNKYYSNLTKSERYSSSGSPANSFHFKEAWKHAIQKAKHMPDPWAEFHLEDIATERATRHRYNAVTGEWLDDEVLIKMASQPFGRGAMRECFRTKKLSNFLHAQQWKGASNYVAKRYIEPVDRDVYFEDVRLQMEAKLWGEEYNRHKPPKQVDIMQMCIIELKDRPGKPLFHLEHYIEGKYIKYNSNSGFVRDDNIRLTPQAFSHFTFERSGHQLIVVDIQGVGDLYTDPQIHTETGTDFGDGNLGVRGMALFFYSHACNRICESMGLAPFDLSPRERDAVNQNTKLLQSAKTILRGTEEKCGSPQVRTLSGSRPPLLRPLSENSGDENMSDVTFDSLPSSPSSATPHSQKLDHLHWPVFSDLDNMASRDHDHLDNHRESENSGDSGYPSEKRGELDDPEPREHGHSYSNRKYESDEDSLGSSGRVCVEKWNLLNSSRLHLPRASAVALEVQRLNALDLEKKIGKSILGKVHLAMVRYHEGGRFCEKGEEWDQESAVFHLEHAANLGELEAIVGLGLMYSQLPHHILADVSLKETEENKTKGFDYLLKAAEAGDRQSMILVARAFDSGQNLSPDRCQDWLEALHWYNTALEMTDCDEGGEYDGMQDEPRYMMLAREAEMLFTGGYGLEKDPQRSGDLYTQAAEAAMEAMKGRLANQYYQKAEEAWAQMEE
As to the kind of experiment: Selectivity interaction (ActivX KiNativ screen (kinase selectivity in THP-1 cell lysates)) EUB0000639a EEF2K. Format: subcellular. The following applies: lysate.

Test [6] deals with T3, Dual specificity mitogen-activated protein kinase kinase 3 (Homo sapiens) (UniProt P46734).
T3 sequence (whole entry): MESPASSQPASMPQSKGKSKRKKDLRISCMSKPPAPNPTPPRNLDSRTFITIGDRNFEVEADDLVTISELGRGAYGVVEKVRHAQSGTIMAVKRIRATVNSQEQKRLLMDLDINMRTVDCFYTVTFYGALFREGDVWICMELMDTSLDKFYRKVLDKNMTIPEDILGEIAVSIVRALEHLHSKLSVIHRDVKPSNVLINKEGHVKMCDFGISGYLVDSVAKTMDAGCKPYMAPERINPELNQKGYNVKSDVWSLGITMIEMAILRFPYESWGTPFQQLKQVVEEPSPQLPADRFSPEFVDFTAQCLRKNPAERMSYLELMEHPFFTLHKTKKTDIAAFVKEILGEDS
The test can be described thus: Selectivity interaction (ActivX KiNativ screen (kinase selectivity in THP-1 cell lysates)) EUB0000639a MAP2K3. Format: subcellular. The following applies: lysate.

Test [7] addresses Ribosomal protein S6 kinase alpha-2 (Homo sapiens) (UniProt Q15349). As to the kind of experiment: Selectivity interaction (ActivX KiNativ screen (kinase selectivity in THP-1 cell lysates)) EUB0000639a RPS6KA2. Format: subcellular. The settings on record: lysate, at 0.01 µM.
The target of test [8] is T4, Tyrosine-protein kinase TXK (Homo sapiens) (UniProt P42681).
T4 sequence (whole entry): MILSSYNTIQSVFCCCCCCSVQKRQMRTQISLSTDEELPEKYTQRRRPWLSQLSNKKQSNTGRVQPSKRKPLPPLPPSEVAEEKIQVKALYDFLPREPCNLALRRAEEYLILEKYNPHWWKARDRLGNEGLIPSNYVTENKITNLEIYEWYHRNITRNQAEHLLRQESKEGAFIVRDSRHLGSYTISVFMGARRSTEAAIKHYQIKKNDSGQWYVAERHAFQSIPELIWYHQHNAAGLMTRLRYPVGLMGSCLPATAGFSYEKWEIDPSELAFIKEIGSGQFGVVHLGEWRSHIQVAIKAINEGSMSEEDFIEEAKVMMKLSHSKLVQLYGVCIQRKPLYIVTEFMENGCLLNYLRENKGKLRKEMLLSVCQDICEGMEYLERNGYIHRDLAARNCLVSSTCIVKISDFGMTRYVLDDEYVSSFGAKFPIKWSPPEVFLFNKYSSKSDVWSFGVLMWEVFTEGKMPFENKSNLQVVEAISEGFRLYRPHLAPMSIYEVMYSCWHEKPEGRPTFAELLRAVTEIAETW
The test can be described thus: Selectivity interaction (KinomeScan (DiscoverX)) EUB0000229b TXK. The settings on record: at 10 µM.

Test [9] has as its target Serine/threonine-protein kinase MRCK beta (Homo sapiens) (UniProt Q9Y5S2). As to the kind of experiment: Selectivity interaction (KinomeScan (DiscoverX)) EUB0001619a CDC42BPB. The settings on record: at 1 µM.

Sequence of Calcium/calmodulin-dependent protein kinase type 1G (Homo sapiens) (Q96NX5 whole entry): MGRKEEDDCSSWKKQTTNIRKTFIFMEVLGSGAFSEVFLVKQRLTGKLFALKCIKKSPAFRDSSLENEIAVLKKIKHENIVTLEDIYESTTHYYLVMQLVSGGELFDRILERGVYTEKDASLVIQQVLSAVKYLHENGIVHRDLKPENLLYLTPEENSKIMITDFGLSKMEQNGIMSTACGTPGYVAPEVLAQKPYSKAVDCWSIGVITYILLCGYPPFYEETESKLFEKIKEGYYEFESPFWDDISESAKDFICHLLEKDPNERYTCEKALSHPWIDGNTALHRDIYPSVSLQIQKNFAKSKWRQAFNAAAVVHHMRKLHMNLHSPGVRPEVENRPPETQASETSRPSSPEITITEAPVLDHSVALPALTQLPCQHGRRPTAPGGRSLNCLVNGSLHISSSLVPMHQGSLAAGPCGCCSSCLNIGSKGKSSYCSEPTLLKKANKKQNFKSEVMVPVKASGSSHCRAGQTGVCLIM
Sequence of Mitogen-activated protein kinase kinase kinase kinase 5 (Homo sapiens) (Q9Y4K4 whole entry, looked up): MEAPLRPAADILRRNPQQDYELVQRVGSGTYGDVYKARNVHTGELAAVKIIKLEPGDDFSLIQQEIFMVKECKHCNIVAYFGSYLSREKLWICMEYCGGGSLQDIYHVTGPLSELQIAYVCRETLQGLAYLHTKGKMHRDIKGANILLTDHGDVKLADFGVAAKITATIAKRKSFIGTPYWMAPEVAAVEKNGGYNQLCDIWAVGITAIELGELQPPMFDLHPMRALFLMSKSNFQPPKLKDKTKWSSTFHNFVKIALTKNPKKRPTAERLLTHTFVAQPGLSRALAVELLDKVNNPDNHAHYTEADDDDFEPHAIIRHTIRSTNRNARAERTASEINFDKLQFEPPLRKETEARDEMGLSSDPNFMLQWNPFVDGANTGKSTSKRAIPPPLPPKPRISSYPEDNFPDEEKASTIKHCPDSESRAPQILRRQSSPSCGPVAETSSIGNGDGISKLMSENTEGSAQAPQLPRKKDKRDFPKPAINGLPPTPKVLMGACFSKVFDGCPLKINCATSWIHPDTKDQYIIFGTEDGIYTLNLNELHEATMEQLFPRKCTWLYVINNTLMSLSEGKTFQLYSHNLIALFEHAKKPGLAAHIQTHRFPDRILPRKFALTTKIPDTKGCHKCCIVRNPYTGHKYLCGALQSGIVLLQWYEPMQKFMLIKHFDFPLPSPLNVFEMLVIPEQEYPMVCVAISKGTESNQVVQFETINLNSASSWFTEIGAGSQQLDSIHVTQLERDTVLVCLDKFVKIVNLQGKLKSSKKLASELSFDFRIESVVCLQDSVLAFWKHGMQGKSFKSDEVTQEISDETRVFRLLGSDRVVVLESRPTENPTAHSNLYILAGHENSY
Sequence of Ribosomal protein S6 kinase alpha-2 (Homo sapiens) (Q15349 whole entry): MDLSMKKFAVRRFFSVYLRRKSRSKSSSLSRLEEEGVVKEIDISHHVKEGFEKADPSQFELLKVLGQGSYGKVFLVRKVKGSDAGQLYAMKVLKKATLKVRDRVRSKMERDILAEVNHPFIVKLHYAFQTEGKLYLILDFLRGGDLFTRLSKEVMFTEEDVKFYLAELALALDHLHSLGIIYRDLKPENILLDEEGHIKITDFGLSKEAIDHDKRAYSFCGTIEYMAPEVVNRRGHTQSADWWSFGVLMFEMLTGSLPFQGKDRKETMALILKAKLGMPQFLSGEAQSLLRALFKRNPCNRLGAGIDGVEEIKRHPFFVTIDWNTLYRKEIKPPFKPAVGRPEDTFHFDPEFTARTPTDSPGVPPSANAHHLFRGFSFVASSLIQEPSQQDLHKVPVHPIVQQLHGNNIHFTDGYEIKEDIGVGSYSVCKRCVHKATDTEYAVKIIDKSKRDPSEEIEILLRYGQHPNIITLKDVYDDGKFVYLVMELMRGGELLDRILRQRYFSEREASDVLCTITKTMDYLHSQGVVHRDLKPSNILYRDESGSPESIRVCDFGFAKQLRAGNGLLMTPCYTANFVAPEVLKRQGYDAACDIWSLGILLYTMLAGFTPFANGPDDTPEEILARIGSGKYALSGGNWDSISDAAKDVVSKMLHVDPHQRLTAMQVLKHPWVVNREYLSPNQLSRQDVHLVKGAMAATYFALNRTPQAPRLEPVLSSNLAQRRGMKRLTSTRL
Sequence of Serine/threonine-protein kinase MRCK beta (Homo sapiens) (Q9Y5S2 whole entry): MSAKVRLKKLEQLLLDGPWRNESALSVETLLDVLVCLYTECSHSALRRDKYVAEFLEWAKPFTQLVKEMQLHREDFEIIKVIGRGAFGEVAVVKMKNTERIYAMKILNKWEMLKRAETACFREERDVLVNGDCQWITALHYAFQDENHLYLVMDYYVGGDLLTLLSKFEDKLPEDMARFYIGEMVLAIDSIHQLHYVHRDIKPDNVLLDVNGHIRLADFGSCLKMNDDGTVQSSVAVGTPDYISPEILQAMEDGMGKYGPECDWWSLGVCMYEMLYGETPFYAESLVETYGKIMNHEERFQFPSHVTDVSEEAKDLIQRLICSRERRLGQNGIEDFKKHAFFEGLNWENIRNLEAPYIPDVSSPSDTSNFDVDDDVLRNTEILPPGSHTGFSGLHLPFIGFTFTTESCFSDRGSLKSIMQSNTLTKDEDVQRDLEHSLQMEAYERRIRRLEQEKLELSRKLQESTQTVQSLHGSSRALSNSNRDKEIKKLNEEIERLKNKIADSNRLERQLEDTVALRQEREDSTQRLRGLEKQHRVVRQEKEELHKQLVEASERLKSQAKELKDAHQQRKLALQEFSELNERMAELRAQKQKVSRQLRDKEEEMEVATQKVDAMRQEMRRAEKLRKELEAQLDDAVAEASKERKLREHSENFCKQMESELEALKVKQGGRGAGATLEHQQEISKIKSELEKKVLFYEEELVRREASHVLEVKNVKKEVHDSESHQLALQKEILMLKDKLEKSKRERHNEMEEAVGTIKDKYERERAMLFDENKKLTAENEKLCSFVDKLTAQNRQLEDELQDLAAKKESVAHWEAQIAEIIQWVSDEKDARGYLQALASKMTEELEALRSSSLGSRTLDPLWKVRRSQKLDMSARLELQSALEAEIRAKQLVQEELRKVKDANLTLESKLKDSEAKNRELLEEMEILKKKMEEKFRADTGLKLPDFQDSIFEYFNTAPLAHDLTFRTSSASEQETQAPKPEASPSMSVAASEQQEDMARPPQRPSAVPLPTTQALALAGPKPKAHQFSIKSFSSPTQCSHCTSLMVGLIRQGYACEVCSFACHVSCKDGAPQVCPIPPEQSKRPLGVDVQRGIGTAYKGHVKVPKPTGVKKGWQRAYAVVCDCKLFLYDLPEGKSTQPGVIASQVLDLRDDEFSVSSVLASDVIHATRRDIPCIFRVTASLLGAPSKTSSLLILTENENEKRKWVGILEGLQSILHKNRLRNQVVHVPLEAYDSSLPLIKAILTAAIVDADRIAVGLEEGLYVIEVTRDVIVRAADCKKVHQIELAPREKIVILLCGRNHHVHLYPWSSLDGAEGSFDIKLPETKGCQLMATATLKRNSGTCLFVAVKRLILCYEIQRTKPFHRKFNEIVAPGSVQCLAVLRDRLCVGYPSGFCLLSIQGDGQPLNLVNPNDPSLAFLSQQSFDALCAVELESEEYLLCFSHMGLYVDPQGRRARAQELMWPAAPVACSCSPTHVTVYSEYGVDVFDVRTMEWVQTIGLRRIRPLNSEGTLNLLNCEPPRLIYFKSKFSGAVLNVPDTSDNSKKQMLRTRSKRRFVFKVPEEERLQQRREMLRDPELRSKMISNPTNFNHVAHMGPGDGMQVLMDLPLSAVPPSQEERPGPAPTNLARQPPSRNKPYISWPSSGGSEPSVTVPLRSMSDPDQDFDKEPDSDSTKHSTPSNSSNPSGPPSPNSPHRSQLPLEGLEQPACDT
Sequence of Mitogen-activated protein kinase 9 (P45984 whole entry, looked up): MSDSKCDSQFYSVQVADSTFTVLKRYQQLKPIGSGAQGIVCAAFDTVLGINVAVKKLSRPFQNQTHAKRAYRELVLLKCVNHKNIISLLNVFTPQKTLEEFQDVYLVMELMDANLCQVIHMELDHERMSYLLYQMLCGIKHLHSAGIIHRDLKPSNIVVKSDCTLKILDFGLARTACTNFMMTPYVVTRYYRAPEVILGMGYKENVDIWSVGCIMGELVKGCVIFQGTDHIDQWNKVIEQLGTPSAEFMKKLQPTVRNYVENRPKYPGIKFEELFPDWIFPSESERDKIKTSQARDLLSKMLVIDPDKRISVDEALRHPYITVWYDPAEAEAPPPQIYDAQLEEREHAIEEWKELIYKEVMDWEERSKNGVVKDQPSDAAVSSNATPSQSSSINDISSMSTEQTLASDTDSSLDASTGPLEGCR

In the case of `Cc1ccc(-c2ccc3c(ccc4sc5c(c43)NC[C@@H](C)NC5=O)n2)cn1`, the % of inhibition in test [1] is -12%.

Take `Cc1cc([C@@H](C)Nc2ccccc2C(=O)O)c2nc(N3CCOCC3)cc(=O)n2c1` [AZD-6482]: in [2], the % of control was 91%.

With `CCC(=O)N1CCN(c2ccc(-n3c(=O)ccc4cnc5ccc(-c6cnc7ccccc7c6)cc5c43)cc2C(F)(F)F)CC1`, the % of control in [3] stood at 8.1%.

For the compound `CNC(=O)Nc1ccc(-c2nc(N3CC4CCC(C3)O4)c3cnn(C4CCC5(CC4)OCCO5)c3n2)cc1`, the % of inhibition in test [4] worked out at 9%.

With `CC[C@@H]1[C@H](F)C(=O)N[C@@H]1COc1nccc2cc(C(N)=O)c(OC)cc12` [ZIMLOVISERTIB], the % of inhibition in [5] (at 0.01 µM) was 4.3%; in [5] (at 0.04 µM), -14.7%; in test [5] (at 0.2 µM), 2.9%; in test [5] (at 1 µM), -15.8%; in test [5] (at 5 µM), -3.6%; in [6] (at 0.01 µM) it was 15.1%. The % of inhibition in test [6] (at 0.04 µM) is -11.7%; in test [6] (at 0.2 µM), -29.6%; in [6] (at 1 µM), -46.2%; in test [6] (at 5 µM), -40.1%; in test [7], -10.4%.

As for `COc1cc(N(C)c2ccnc3ccc(C(F)(F)F)cc23)cc(OC)c1OC`, the % binding in test [8] came out at 96%.

Regarding `N#Cc1cccc(-c2c[nH]c3ncnc(N4CCOCC4)c23)c1`, the % of control in test [9] came to 83%.

For the origin of these results see ChEMBL document CHEMBL5465560, “Selectivity Literature for EUbOPEN Chemogenomic Library” (2024).
